Molecules are shown by their SMILES.

T1 sequence (P50406 whole entry): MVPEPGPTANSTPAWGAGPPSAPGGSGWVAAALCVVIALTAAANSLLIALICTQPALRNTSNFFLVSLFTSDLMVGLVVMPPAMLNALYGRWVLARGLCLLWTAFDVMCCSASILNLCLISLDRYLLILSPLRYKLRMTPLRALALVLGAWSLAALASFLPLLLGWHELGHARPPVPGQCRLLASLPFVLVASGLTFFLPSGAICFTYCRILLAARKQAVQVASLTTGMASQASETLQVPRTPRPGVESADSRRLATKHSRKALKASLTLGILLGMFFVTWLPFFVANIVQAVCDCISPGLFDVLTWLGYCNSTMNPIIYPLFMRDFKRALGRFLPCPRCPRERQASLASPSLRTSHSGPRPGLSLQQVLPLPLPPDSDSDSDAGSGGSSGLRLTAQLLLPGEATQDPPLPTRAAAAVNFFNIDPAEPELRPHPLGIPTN

One experiment has as its target T1, serotonin 5-HT6 receptor subtype (Homo sapiens, UniProt P50406).
T1 construct: host or cells: CHO-Dukx-A2 cells, clone 50-7
Put plainly: 5-HT6 binding affinity ([3H]-LSD SPA binding).
Conditions: not given
As a reminder, the Ki is a dissociation constant, usually derived from enzyme kinetics or from competition with a known ligand. In the case of `O=S(=O)(c1ccccc1)n1cnc2c(N3CCNCC3)cccc21` [Example 3, 1-(phenylsulfonyl)-4-(piperazin-1-yl)-1H-benzo[d]imidazole], the inhibitory constant (Ki) was 1.36 nM.

Still in this experiment, the particulars now being: read-out: 5-HT6 binding Ki.
As to `COc1c(F)cccc1S(=O)(=O)n1cnc2c(N3CCNCC3)cccc21` [Example 74, 1-[(3-fluoro-2-methoxyphenyl)sulfonyl]-4-piperazin-1-yl-1H-benzimidazole], the Ki turned out to be 0.485 nM. Consider `COc1cc(C)c(Cl)cc1S(=O)(=O)n1cnc2c(N3CCNCC3)cccc21` [Example 90, 1-[(5-chloro-2-methoxy-4-methylphenyl)sulfonyl]-4-piperazin-1-yl-1H-benzimidazole], for which the Ki was determined as 12.9 nM. Consider `O=S(=O)(c1ccccc1Cl)n1cnc2c(N3C[C@@H]4C[C@H]3CN4)cccc21` [Example 106, 1-[(2-chlorophenyl)sulfonyl]-4-[(1S,4S)-2,5-diazabicyclo[2.2.1]hept-2-yl]-1H-benzimidazole], for which the inhibitory constant (Ki) was found to be 5.3 nM. The same measure, in the same setting: in the case of `Cc1nc2c(N3C[C@@H](C)N[C@@H](C)C3)cccc2n1S(=O)(=O)c1cccc(F)c1` [Example 99, 4-[(3R,5S)-3,5-dimethylpiperazin-1-yl]-1-[(3-fluorophenyl)sulfonyl]-2-methyl-1H-benzimidazole] it was 12.9 nM; in that of `CC(C)CC1CN(c2cccc3c2ncn3S(=O)(=O)c2cccc3ccccc23)CCN1` (stereo not drawn) [Example 124, 4-(3-isobutylpiperazin-1-yl)-1-(1-naphthylsulfonyl)-1H-benzimidazole], 8.32 nM. The same measure, in the same setting: next, `O=S(=O)(c1ccccc1Cl)n1cnc2c(N3CCNCC3)cccc21` [Example 11, 1-[(2-chlorophenyl)sulfonyl]-4-piperazin-1-yl-1H-benzimidazole]: 0.269 nM; `CCC1CN(c2cccc3c2ncn3S(=O)(=O)c2ccccc2)CCN1` (stereo not drawn) [Example 119, 4-(3-ethylpiperazin-1-yl)-1-(phenylsulfonyl)-1H-benzimidazole]: 0.484 nM. Still for that read-out and setting: next, `O=S(=O)(c1ccccc1C(F)(F)F)n1cnc2c(N3CCNCC3)cccc21` [Example 41, 4-piperazin-1-yl-1-{[2-(trifluoromethyl)phenyl]sulfonyl}-1H-benzimidazole]: 1.06 nM.

For `Cc1ccc(S(=O)(=O)n2c(C)nc3c(N4CCNCC4)cccc32)cc1` [Example 31, 2-methyl-1-[(4-methylphenyl)sulfonyl]-4-piperazin-1-yl-1H-benzimidazole], the Ki was found to be 0.467 nM. On the same count and under the same terms, in the case of `Cc1nc2c(N3CCNC(C)C3)cccc2n1S(=O)(=O)c1ccccc1` (stereo in doubt) [Example 114, 2-methyl-4-[(3R)-3-methylpiperazin-1-yl]-1-(phenylsulfonyl)-1H-benzimidazole] it was 3.17 nM; in that of `O=S(=O)(c1ccc(OC(F)(F)F)cc1)n1cnc2c(N3CCNCC3)cccc21` [Example 25, 4-piperazin-1-yl-1-{[4-(trifluoromethoxy)phenyl]sulfonyl}-1H-benzimidazole], 89 nM; in that of `Cc1nc2c(N3C[C@@H](C)N[C@@H](C)C3)cccc2n1S(=O)(=O)c1ccccc1` [Example 96, 4-[(3R,5S)-3,5-dimethylpiperazin-1-yl]-2-methyl-1-(phenylsulfonyl)-1H-benzimidazole], 27.2 nM. Still for that read-out and setting: in the case of `CN1CCN(c2cccc3c2ncn3S(=O)(=O)c2ccccc2)CC1` [Example 12, 4-(4-methylpiperazin-1-yl)-1-(phenylsulfonyl)-1H-benzimidazole] it was 1.66 nM; in that of `Cc1nc2c(N3CCNCC3)cccc2n1S(=O)(=O)c1ccc(OC(F)(F)F)cc1` [Example 30, 2-methyl-4-piperazin-1-yl-1-{[4-(trifluoromethoxy)phenyl]sulfonyl}-1H-benzimidazole], 15.8 nM; in that of `Cc1nc2c(N3CCNCC3)cccc2n1S(=O)(=O)c1ccccc1F` [Example 32, 1-[(2-fluorophenyl)sulfonyl]-2-methyl-4-piperazin-1-yl-1H-benzimidazole], 2.5 nM. Consider `Cc1cccc(S(=O)(=O)n2cnc3c(N4CCNC(C)C4)cccc32)c1` (stereo not drawn) [Example 55, 1-[(3-methylphenyl)sulfonyl]-4-(3-methylpiperazin-1-yl)-1H-benzimidazole], for which the Ki worked out at 2.47 nM. Still for that read-out and setting: next, `Cc1nc2c(N3C[C@@H]4C[C@H]3CN4)cccc2n1S(=O)(=O)c1cccc2ccccc12` [Example 110, 4-[(1S,4S)-2,5-diazabicyclo[2.2.1]hept-2-yl]-2-methyl-1-(naphthalen-1-ylsulfonyl)-1H-benzimidazole]: 9.92 nM; `Cc1nc2c(N3CCNCC3)cccc2n1S(=O)(=O)c1cccc(Cl)c1` [Example 16, 1-[(3-chlorophenyl)sulfonyl]-2-methyl-4-piperazin-1-yl-1H-benzimidazole]: 0.99 nM. Take `Cc1ccc(S(=O)(=O)n2cnc3c(N4CCNCC4)cccc32)c2ccccc12` [Example 35, 1-[(4-methyl-1-naphthyl)sulfonyl]-4-piperazin-1-yl-1H-benzimidazole]: the Ki was 1.1 nM. On to `CC1CN(c2cccc3c2ncn3S(=O)(=O)c2ccccc2Cl)CCN1` (stereo not drawn) [Example 53, 1-[(2-chlorophenyl)sulfonyl]-4-(3-methylpiperazin-1-yl)-1H-benzimidazole], for which the Ki came out at 1.34 nM. Still for that read-out and setting: in the case of `Cc1nc2c(N3CCNC(C)C3)cccc2n1S(=O)(=O)c1cccc2ccccc12` (stereo in doubt) [Example 117, 2-methyl-4-[(3S)-3-methylpiperazin-1-yl]-1-(1-naphthylsulfonyl)-1H-benzimidazole] it was 0.305 nM; in that of `CC(C)c1nc2c(N3CCNCC3)cccc2n1S(=O)(=O)c1cccc2c(Cl)cccc12` [Example 62, 1-[(5-chloronaphthalen-1-yl)sulfonyl]-2-(1-methylethyl)-4-piperazin-1-yl-1H-benzimidazole], 1.47 nM. Same read-out and setting: in the case of `CCCCc1nc2c(N3CCNCC3)cccc2n1S(=O)(=O)c1ccccc1` [Example 8, 2-butyl-1-(phenylsulfonyl)-4-piperazin-1-yl-1H-benzimidazole] it was 1.1 nM.

As to `CC(C)CC1CN(c2cccc3c2ncn3S(=O)(=O)c2ccccc2Cl)CCN1` (stereo not drawn) [Example 125, 1-[(2-chlorophenyl)sulfonyl]-4-(3-isobutylpiperazin-1-yl)-1H-benzimidazole], the Ki turned out to be 4.98 nM.

On to `CC(C)C1CN(c2cccc3c2ncn3S(=O)(=O)c2ccccc2)CCN1` (stereo not drawn) [Example 120, 4-(3-isopropylpiperazin-1-yl)-1-(phenylsulfonyl)-1H-benzimidazole], for which the Ki turned out to be 6.11 nM. On the same count and under the same terms, in the case of `O=S(=O)(c1ccc(F)cc1)n1cnc2c(N3CCNCC3)cccc21` [Example 20, 1-[(4-fluorophenyl)sulfonyl]-4-piperazin-1-yl-1H-benzimidazole] it was 25 nM; in that of `Cc1nc2c(N3CCN(C)CC3)cccc2n1S(=O)(=O)c1cccc2ccccc12` [Example 9, 2-methyl-4-(4-methylpiperazin-1-yl)-1-(1-naphthylsulfonyl)-1H-benzimidazole], 0.004 nM. The same measure, in the same setting: next, `Cc1nc2c(N3CCNC(C)C3)cccc2n1S(=O)(=O)c1ccccc1Cl` (stereo not drawn) [Example 93, 1-[(2-chlorophenyl)sulfonyl]-2-methyl-4-(3-methylpiperazin-1-yl)-1H-benzimidazole]: 0.488 nM; `Cc1nc2c(N3CCNC(C)C3)cccc2n1S(=O)(=O)c1cccc(F)c1` (stereo not drawn) [Example 94, 1-[(3-fluorophenyl)sulfonyl]-2-methyl-4-(3-methylpiperazin-1-yl)-1H-benzimidazole]: 1.07 nM.

The record behind these values is patent US8063053B2, “1-(arylsulfonyl)-4-(piperazin-1-yl)-1H-benzimidazoles as 5-hydroxytryptamine-6 ligands” (Wyeth LLC, priority 2008, dated 2011).
